Reference: the supplement of paper PMC10883282
Structures can show the parent of a compound that is named as a salt. ± gives the standard deviation of the averaged measurements.

Test system: SW684
Assay: relative viability vs DMSO control (72 h) (fraction); higher = more viable cells
In short: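 Densities for seeding sarcoma cell lines into 384-well plates were set to give 80–90% confluence. After 24 h, 2.5 µl of serially diluted compound from source plates of 10 mM to 0.0002 mM went in, and plates stayed 72 h at 37 °C in 5% CO2 with 0.1% DMSO vehicle and a 5 µM positive control. Percent growth from ATPLite readings, averaged over up to triplicate wells, served as relative viability, rescaled so 1 means full and 0 means none.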

Row | SMILES | relative viability (0.00017 µM) | relative viability (0.00051 µM) | relative viability (0.00152 µM) | relative viability (0.00457 µM) | relative viability (0.01372 µM) | relative viability (0.04115 µM) | relative viability (0.1235 µM) | relative viability (0.3704 µM) | relative viability (1.111 µM) | relative viability (3.333 µM) | relative viability (10 µM) | relative viability (2 pM) | relative viability (5 pM) | relative viability (15 pM) | relative viability (50 pM) | relative viability (0.00014 µM) | relative viability (0.00041 µM) | relative viability (0.0012 µM) | relative viability (0.0037 µM) | relative viability (0.011 µM) | relative viability (200 fM) | relative viability (600 fM)
1 | COc1cccc2c1C(=O)c1c(O)c3c(c(O)c1C2=O)C[C@@](O)(C(=O)CO)C[C@@H]3O[C@H]1C[C@H](N)[C@H](O)[C@H](C)O1 [Doxorubicin Hydrochloride] | 1.21 ± 0.03 | 1.21 ± 0.023 | 1.2 ± 0.058 | 1.157 ± 0.0079 | 1.06 ± 0.044 | 0.96 ± 0.031 | 0.821 ± 0.062 | 0.731 ± 0.14 | 0.813 ± 0.013 | 0.803 ± 0.033 | 0.693 ± 0.024 |  |  |  |  |  |  |  |  |  |  | 
2 | CO[C@H]1C[C@@H]2CC[C@@H](C)[C@@](O)(O2)C(=O)C(=O)N2CCCC[C@H]2C(=O)O[C@H]([C@H](C)C[C@@H]2CC[C@@H](OP(C)(C)=O)[C@H](OC)C2)CC(=O)[C@H](C)/C=C(\C)[C@@H](O)[C@@H](OC)C(=O)[C@H](C)C[C@H](C)/C=C/C=C/C=C/1C [Ridaforolimus] | 1.14 ± 0.081 | 1.11 ± 0.065 | 1.07 ± 0.021 | 0.971 ± 0.07 | 0.896 ± 0.043 | 0.862 ± 0.026 | 0.839 ± 0.033 | 0.846 ± 0.049 | 0.833 ± 0.025 | 0.791 ± 0.045 | 0.749 ± 0.068 |  |  |  |  |  |  |  |  |  |  | 
3 | Cc1cc(C)c(/C=C2\C(=O)Nc3ccccc32)[nH]1 [Semaxanib] | 0.981 ± 0.022 | 0.962 ± 0.03 | 0.994 ± 0.026 | 0.935 ± 0.018 | 0.917 ± 0.02 | 0.8931 ± 0.0076 | 0.901 ± 0.046 | 0.923 ± 0.029 | 0.932 ± 0.06 | 0.902 ± 0.072 | 0.812 ± 0.017 |  |  |  |  |  |  |  |  |  |  | 
4 | CN1CCC(COc2cnc(-c3cccc(Cn4nc(-c5cccc(C#N)c5)ccc4=O)c3)nc2)CC1 [Tepotinib] | 1.11 ± 0.034 | 1.21 ± 0.032 | 1.14 ± 0.055 | 1.16 ± 0.039 | 1.16 ± 0.043 | 1.15 ± 0.065 | 1.18 ± 0.067 | 1.16 ± 0.096 | 1.14 ± 0.08 | 1.1 ± 0.044 | 0.865 ± 0.047 |  |  |  |  |  |  |  |  |  |  | 
5 | COc1cc2c(Oc3ccc4[nH]c(C)cc4c3F)ncnc2cc1OCCCN1CCCC1 [Cediranib] | 1.18 ± 0.024 | 1.17 ± 0.076 | 1.17 ± 0.03 | 1.17 ± 0.059 | 1.16 ± 0.033 | 1.169 ± 0.011 | 1.15 ± 0.029 | 1.19 ± 0.033 | 1.2 ± 0.035 | 1.19 ± 0.039 | 0.987 ± 0.058 |  |  |  |  |  |  |  |  |  |  | 
6 | C[C@@H](c1ccc2nccn2c1)n1nnc2ncc(-c3cnn(C)c3)nc21 [Volitinib] | 1.17 ± 0.067 | 1.17 ± 0.028 | 1.17 ± 0.022 | 1.14 ± 0.083 | 1.18 ± 0.048 | 1.17 ± 0.034 | 1.16 ± 0.064 | 1.15 ± 0.032 | 1.13 ± 0.019 | 1.13 ± 0.018 | 0.968 ± 0.092 |  |  |  |  |  |  |  |  |  |  | 
7 | CC1(C)CNc2cc(NC(=O)c3cccnc3NCc3ccncc3)ccc21 [Motesanib] | 1.04 ± 0.033 | 0.999 ± 0.073 | 0.999 ± 0.065 | 1.01 ± 0.084 | 0.978 ± 0.016 | 0.9719 ± 0.0041 | 0.99 ± 0.079 | 0.94 ± 0.016 | 0.98 ± 0.064 | 1.02 ± 0.043 | 0.859 ± 0.039 |  |  |  |  |  |  |  |  |  |  | 
8 | N#CC[C@H](C1CCCC1)n1cc(-c2ncnc3[nH]ccc23)cn1 [Ruxolitinib] | 0.985 ± 0.022 | 1.062 ± 0.005 | 1.03 ± 0.017 | 1.04 ± 0.072 | 0.991 ± 0.028 | 0.976 ± 0.035 | 0.978 ± 0.023 | 0.9518 ± 0.0033 | 0.912 ± 0.032 | 0.915 ± 0.036 | 0.777 ± 0.012 |  |  |  |  |  |  |  |  |  |  | 
9 | Cc1nc(NC(=O)N2CCC[C@H]2C(N)=O)sc1-c1ccnc(C(C)(C)C(F)(F)F)c1 [Alpelisib] | 1.09 ± 0.054 | 1.12 ± 0.043 | 1.12 ± 0.059 | 1.15 ± 0.065 | 1.09 ± 0.089 | 1.05 ± 0.026 | 1.07 ± 0.061 | 0.968 ± 0.025 | 0.876 ± 0.0097 | 0.643 ± 0.025 | 0.446 ± 0.036 |  |  |  |  |  |  |  |  |  |  | 
10 | CN1CCN(c2ccc3nc(-c4c(N)c5c(F)cccc5[nH]c4=O)[nH]c3c2)CC1 [Dovitinib] | 1.12 ± 0.039 | 1.17 ± 0.013 | 1.17 ± 0.033 | 1.15 ± 0.037 | 1.18 ± 0.028 | 1.15 ± 0.038 | 1.11 ± 0.037 | 1.138 ± 0.01 | 0.977 ± 0.034 | 0.656 ± 0.019 | 0.294 ± 0.038 |  |  |  |  |  |  |  |  |  |  | 
11 | COc1cc2c(cc1O)CCN[C@]21CS[C@@H]2c3c(OC(C)=O)c(C)c4c(c3[C@H](COC1=O)N1[C@@H]2[C@H]2c3c(cc(C)c(OC)c3O)C[C@@H]([C@@H]1O)N2C)OCO4 [Trabectedin] |  |  |  |  |  |  |  |  |  |  |  | 1.22 ± 0.037 | 1.2 ± 0.027 | 1.22 ± 0.047 | 1.18 ± 0.06 | 1.2 ± 0.045 | 1.1605 ± 0.00091 | 0.64 ± 0.054 | 0.811 ± 0.043 | 0.84 ± 0.038 | 1.17 ± 0.051 | 1.2 ± 0.071
12 | C=CC(=O)Nc1cccc(Oc2nc(Nc3ccc(N4CCN(C)CC4)cc3)nc3ccsc23)c1 [Olmutinib] | 1.07 ± 0.043 | 1.14 ± 0.069 | 1.08 ± 0.029 | 1.15 ± 0.061 | 1.05 ± 0.014 | 1.09 ± 0.025 | 1.149 ± 0.0031 | 1.14 ± 0.073 | 1.07 ± 0.049 | 0.849 ± 0.032 | 0.0282 ± 0.0066 |  |  |  |  |  |  |  |  |  |  | 
13 | CC(C)NC(=O)C1CCC(n2c(NC(=O)c3ccc(F)cc3)nc3ccc(CN4CCC(C(C)(C)O)CC4)cc32)CC1 (centres undefined) [Belizatinib] | 1.169 ± 0.011 | 1.17 ± 0.071 | 1.19 ± 0.024 | 1.21 ± 0.098 | 1.21 ± 0.11 | 1.17 ± 0.056 | 1.16 ± 0.012 | 1.18 ± 0.03 | 1.09 ± 0.048 | 0.798 ± 0.034 | 0.381 ± 0.056 |  |  |  |  |  |  |  |  |  |  | 
14 | CCN1CCN(Cc2ccc(Nc3ncc(F)c(-c4cc(F)c5nc(C)n(C(C)C)c5c4)n3)nc2)CC1 [Abemaciclib] | 1.13 ± 0.036 | 1.16 ± 0.06 | 1.13 ± 0.048 | 1.12 ± 0.035 | 1.1 ± 0.051 | 1.11 ± 0.051 | 1.04 ± 0.037 | 0.894 ± 0.059 | 0.781 ± 0.028 | 0.832 ± 0.027 | 0.825 ± 0.035 |  |  |  |  |  |  |  |  |  |  | 
15 | COc1c(OCCCN2CCOCC2)ccc2c1N=C(NC(=O)c1cnc(N)nc1)N1CCN=C21 [Copanlisib] | 1.09 ± 0.061 | 1.12 ± 0.062 | 1 ± 0.026 | 0.7483 ± 0.0065 | 0.631 ± 0.025 | 0.516 ± 0.018 | 0.469 ± 0.011 | 0.435 ± 0.018 | 0.425 ± 0.017 | 0.403 ± 0.0053 | 0.368 ± 0.002 |  |  |  |  |  |  |  |  |  |  | 
16 | Cc1nc(-c2cn3c(n2)-c2ccc(-c4cnn(C(C)(C)C(N)=O)c4)cc2OCC3)n(C(C)C)n1 [Taselisib] | 1.09 ± 0.027 | 1.1 ± 0.036 | 1.06 ± 0.019 | 1.01 ± 0.027 | 0.923 ± 0.036 | 0.75 ± 0.021 | 0.634 ± 0.009 | 0.549 ± 0.017 | 0.477 ± 0.0088 | 0.445 ± 0.026 | 0.451 ± 0.015 |  |  |  |  |  |  |  |  |  |  | 
17 | O=C(Cc1ccc(-c2ccc(OCCN3CCOCC3)cc2)cn1)NCc1ccccc1 [KX2-391] | 1.13 ± 0.039 | 1.15 ± 0.03 | 1.18 ± 0.014 | 1.182 ± 0.011 | 1.15 ± 0.025 | 1.04 ± 0.073 | 0.77 ± 0.02 | 0.696 ± 0.027 | 0.751 ± 0.024 | 0.762 ± 0.044 | 0.734 ± 0.033 |  |  |  |  |  |  |  |  |  |  | 
18 | C[C@@H]1COCCN1c1cc(-c2ccnn2C)c2ccnc(-c3ccn[nH]3)c2n1 | 1.14 ± 0.056 | 1.19 ± 0.041 | 1.18 ± 0.085 | 1.17 ± 0.069 | 1.14 ± 0.082 | 1.06 ± 0.056 | 1.04 ± 0.048 | 0.919 ± 0.036 | 0.719 ± 0.039 | 0.461 ± 0.023 | 0.367 ± 0.01 |  |  |  |  |  |  |  |  |  |  | 
19 | Cc1cnc(Nc2ccc(OCCN3CCCC3)cc2)nc1Nc1cccc(S(=O)(=O)NC(C)(C)C)c1 [Fedratinib] | 1.12 ± 0.04 | 1.16 ± 0.04 | 1.17 ± 0.081 | 1.16 ± 0.021 | 1.15 ± 0.047 | 1.13 ± 0.038 | 1.1 ± 0.029 | 1 ± 0.023 | 0.666 ± 0.04 | 0.399 ± 0.018 | 0.0027 |  |  |  |  |  |  |  |  |  |  | 
